Assay [1] has as its target Coagulation factor X (Homo sapiens, UniProt P00742). The assay is described as follows: Inhibition of factor 10a.
Assay [2] concerns the target Integrin alpha-IIb/beta-3 (Homo sapiens, UniProt P05106+P08514). The assay is described as follows: Inhibition of fibrinogen binding to human platelet GPIIb/IIIa receptor.
For assay [3], the system named is Platelet. As to the kind of experiment: Inhibition of ADP-induced platelet aggregation in human platelet rich plasma at 50 uM. It is filed as functional.
The target of assay [4] is Prothrombin (Homo sapiens, UniProt P00734).
Assay [5] can be described thus: Selectivity for thrombin over trypsin.
Assay [6] is described as follows: Selectivity for thrombin over factor 10a.
In assay [7] the test system is Platelet. As to the kind of experiment: Inhibition of ADP-induced platelet aggregation in human platelet rich plasma. In kind it is functional, cell-free.

Data on 24 compounds can be found in ChEMBL document CHEMBL1140066, “3,4-Dihydro-2H-1,4-benzoxazine derivatives combining thrombin inhibitory and glycoprotein IIb/IIIa receptor antagonistic activity as a novel class of antithrombotic compounds with dual function” (J Med Chem, 2008).

Activity calls are given as the source filed them. The calls are words filed in the database; no cut-off is given here.

Sequence of Integrin alpha-IIb/beta-3 (P05106 27-788 limits assumed): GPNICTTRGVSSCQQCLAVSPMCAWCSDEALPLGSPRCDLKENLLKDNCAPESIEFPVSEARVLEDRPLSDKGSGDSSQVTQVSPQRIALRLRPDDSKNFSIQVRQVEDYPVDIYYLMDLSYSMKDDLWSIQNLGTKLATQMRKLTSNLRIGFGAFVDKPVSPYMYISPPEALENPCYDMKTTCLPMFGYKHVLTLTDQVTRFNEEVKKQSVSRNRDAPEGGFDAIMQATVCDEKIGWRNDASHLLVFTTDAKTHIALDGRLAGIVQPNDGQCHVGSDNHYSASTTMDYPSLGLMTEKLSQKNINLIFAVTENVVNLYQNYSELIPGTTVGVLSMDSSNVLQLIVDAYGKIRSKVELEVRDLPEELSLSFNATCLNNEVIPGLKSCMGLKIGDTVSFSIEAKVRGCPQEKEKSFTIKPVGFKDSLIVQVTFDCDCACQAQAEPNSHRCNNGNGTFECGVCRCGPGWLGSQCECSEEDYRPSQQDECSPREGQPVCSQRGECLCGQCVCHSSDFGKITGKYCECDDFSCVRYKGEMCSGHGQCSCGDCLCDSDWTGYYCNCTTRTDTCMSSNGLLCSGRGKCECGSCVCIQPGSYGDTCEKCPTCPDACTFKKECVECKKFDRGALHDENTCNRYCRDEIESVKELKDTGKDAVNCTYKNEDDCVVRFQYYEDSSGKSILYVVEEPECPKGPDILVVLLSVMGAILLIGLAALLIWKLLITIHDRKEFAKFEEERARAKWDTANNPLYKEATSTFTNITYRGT
Sequence of Integrin alpha-IIb/beta-3 (P08514 32-887 limits assumed): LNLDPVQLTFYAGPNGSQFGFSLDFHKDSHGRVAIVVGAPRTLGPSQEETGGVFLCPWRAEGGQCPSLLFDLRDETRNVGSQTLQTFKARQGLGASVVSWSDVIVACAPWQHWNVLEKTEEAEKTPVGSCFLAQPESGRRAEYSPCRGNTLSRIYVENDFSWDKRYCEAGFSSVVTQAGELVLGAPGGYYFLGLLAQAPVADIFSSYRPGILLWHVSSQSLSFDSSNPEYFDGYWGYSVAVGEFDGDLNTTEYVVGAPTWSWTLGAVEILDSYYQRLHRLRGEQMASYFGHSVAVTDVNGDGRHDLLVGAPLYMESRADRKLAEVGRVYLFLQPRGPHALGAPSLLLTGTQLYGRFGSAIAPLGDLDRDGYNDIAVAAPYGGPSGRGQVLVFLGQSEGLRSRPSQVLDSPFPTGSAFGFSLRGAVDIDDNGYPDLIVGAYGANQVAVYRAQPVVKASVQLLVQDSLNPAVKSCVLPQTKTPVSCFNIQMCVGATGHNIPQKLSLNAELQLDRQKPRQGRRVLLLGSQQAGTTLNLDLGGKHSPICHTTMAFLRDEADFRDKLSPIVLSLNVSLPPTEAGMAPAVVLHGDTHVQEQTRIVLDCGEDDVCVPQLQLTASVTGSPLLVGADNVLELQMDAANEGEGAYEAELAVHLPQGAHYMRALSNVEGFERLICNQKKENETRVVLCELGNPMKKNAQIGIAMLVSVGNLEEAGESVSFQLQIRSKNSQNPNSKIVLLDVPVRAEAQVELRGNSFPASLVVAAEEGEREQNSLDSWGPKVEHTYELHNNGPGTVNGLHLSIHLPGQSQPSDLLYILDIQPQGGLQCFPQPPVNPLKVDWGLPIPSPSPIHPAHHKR
Sequence of Integrin alpha-IIb/beta-3 (P08514 891-1039 limits assumed): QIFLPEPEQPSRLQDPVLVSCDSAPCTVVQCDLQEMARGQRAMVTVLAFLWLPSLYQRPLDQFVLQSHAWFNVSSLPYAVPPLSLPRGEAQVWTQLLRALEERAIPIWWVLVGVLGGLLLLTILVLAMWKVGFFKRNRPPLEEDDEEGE
Sequence of Coagulation factor X (P00742 41-179 limits assumed): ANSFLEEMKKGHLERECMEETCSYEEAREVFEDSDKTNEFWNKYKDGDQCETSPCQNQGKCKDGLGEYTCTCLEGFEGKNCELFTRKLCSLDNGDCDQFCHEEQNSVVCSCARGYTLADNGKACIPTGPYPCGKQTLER
Sequence of Coagulation factor X (P00742 235-488 limits assumed): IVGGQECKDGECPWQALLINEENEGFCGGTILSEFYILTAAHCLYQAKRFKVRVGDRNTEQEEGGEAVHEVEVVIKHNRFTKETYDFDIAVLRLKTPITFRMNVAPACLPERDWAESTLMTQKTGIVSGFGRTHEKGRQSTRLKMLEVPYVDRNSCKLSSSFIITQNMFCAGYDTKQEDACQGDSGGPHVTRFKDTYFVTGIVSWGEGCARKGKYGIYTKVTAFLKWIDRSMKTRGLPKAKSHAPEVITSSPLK

Consider `CCOC(=O)CN(Cc1ccccc1)c1ccc2c(c1)N(C)CC(C)(COc1ccc(C(=N)N)cc1)O2` (stereo unspecified), for which the Ki (commonly a measure of affinity in units of concentration, obtained from inhibition or displacement) in assay [1] came to 11.9 µM. Besides, the IC50 – broadly, the concentration needed to halve the response being measured – in assay [2] was 0.73 µM. Further, the inhibition (usually the change of the read-out against control, counted positive when it falls) at 50 µM in assay [3] is 13%.

For `CN1CC(C)(COc2ccc(C(=N)N)cc2)Oc2cc(NC(=O)CCC(=O)O)ccc21` (stereo unspecified), the Ki was 5.16 µM in assay [4] and 33.8 µM in assay [1]. The Selectivity ratio turned out to be 0.3 in assay [5] and 6.6 in assay [6]. Further, the IC50 in assay [2] stood at 1.69 µM; in assay [7] it was 36.7 µM.

For `CCOC(=O)CN(C(=O)c1ccccc1)c1ccc2c(c1)OC(C)(COc1ccc(C(=N)N)cc1)CN2C` (stereo unspecified), the Ki came to 0.156 µM in assay [4] and 9.59 µM in assay [1]. Besides, the Selectivity ratio worked out at 12 in assay [5] and 47 in assay [6]. In assay [2], this compound gave an IC50 of 1.78 µM. Also, the inhibition at 50 µM in assay [3] worked out at 21%.

Compound `CCOC(=O)C[C@H](NC(=O)c1ccc2c(c1)OC(OCc1ccc(C(=N)N)cc1)C(=O)N2C)c1ccccc1` (stereo partly specified) had a Ki in assay [1] of 54.6 µM. This compound gave an IC50 in assay [2] of 24.6 µM.

For `CN1C(=O)C(OCc2ccc(C(=N)N)cc2)Oc2cc(C(=O)Nc3ccccc3)ccc21` (stereo unspecified), the Ki turned out to be 24.2 µM in assay [4] and 31.6 µM in assay [1]. Further, the figures for the Selectivity ratio in assay [5] and in assay [6] were 0.7 and 1.3, respectively. Besides, the IC50 in assay [2] was 12.1 µM. Also, the inhibition at 50 µM in assay [3] came out at 19%.

Regarding `CN1CC(C)(COc2ccc(C(=N)N)cc2)Oc2cc(NC(=O)c3ccccc3)ccc21` (stereo unspecified), the Ki is 5 µM in assay [4] and 12.1 µM in assay [1]. For the same compound, the Selectivity ratio in assay [5] is 0.3; in assay [6], 2.4. In addition, the IC50 in assay [2] came to 2.85 µM. The inhibition at 50 µM in assay [3] amounted to 21%.

As for `CCOC(=O)CN(C(=O)c1ccc2c(c1)OC(OCc1ccc(C(=N)N)cc1)C(=O)N2C)c1ccccc1` (stereo unspecified), the values for the Ki in assay [4] and in assay [1] were 3.98 µM and 43.1 µM, respectively. Moreover, the Selectivity ratio was 4.6 in assay [5] and 11 in assay [6]. In assay [2], the IC50 amounted to 28.4 µM. Besides, testing at 50 µM in assay [3] gave an inhibition of 10%.

`CCOC(=O)C(=O)N(Cc1ccccc1)c1ccc2c(c1)N(C)CC(C)(COc1ccc(C(=N)N)cc1)O2` (stereo unspecified) displayed a Ki in assay [1] of 16 µM. The compound also had an IC50 in assay [2] of 1.2 µM. Moreover, in assay [3], at 50 µM the inhibition was 24%.

The compound `CN1CC(C)(COc2ccc(C(=N)N)cc2)Oc2ccc(N(Cc3ccccc3)C(=O)C(=O)O)cc21` (stereo unspecified) displayed a Ki in assay [1] of 31.7 µM. In addition, the IC50 in assay [2] is greater than 100 µM.

Take `CN1C(=O)C(OCc2ccc(C(=N)N)cc2)Oc2cc(C(=O)N(CC(=O)O)c3ccccc3)ccc21` (stereo unspecified): the Ki in assay [4] came to 1.76 µM; in assay [1], 49.6 µM. In addition, the Selectivity ratio was found to be 9.4 in assay [5] and 28 in assay [6]. Besides, the concentration for half-maximal inhibition (IC50) in assay [2] was greater than 100 µM. Moreover, in assay [3], the inhibition at 50 µM was found to be 24%.

For the compound `CN1CC(C)(COc2ccc(C(=N)N)cc2)Oc2cc(N(Cc3ccccc3)C(=O)CCC(=O)O)ccc21` (stereo unspecified), in assay [1], affinity was put at a Ki of 29.7 µM. For the same compound, the IC50 in assay [2] was greater than 100 µM. In assay [3], this compound gave an inhibition at 50 µM of 14%.

Consider `CCOC(=O)CCC(=O)N(Cc1ccccn1)c1ccc2c(c1)OC(C)(COc1ccc(C(=N)N)cc1)CN2C` (stereo unspecified), for which the Ki in assay [4] was determined as 0.025 µM; in assay [1], 11.8 µM. Further, the Selectivity ratio in assay [5] was found to be 56; in assay [6] it was 472. The compound further gave an IC50 in assay [2] of 11.3 µM. Further, in assay [3], 50 µM produced 15% inhibition.

On to `CCOC(=O)CN(Cc1ccccc1)c1ccc2c(c1)OC(C)(COc1ccc(C(=N)N)cc1)CN2C` (stereo unspecified), for which the Ki in assay [4] worked out at 0.38 µM; in assay [1], 2.67 µM. In addition, the Selectivity ratio in assay [5] was determined as 4.5; in assay [6], 7. Also, in assay [2], the IC50 worked out at 1.45 µM. The compound further displayed an inhibition at 50 µM in assay [3] of 19%.

In assay [1], `CCOC(=O)CCC(=O)N(Cc1ccccc1)c1ccc2c(c1)N(C)CC(C)(COc1ccc(C(=N)N)cc1)O2` (stereo unspecified) displayed a Ki of 27.7 µM. In assay [2], this compound had a half-maximal inhibitory concentration (IC50) greater than 100 µM. Also, in assay [3], the outcome was inactive.

Turning to `CN1C(=O)C(OCc2ccc(C(=N)N)cc2)Oc2cc(C(=O)N[C@@H](CC(=O)O)c3ccccc3)ccc21` (stereo partly specified), the Ki in assay [4] is 14.9 µM; in assay [1] it was greater than 200 µM. Moreover, the IC50 in assay [2] came to 1.64 µM.

`CN1CC(C)(COc2ccc(C(=N)N)cc2)Oc2cc(N(Cc3ccccc3)C(=O)C(=O)O)ccc21` (stereo unspecified) yielded a Ki in assay [1] of 16.6 µM. The compound further showed a half-maximal inhibitory concentration (IC50) in assay [2] greater than 100 µM. For the same compound, the inhibition at 50 µM in assay [3] is 26%.

Turning to `CN1C(=O)C(OCc2ccc(C(=N)N)cc2)Oc2cc(C(=O)NCCC(=O)O)ccc21` (stereo unspecified), the figures for the inhibitory constant (Ki) in assay [4] and in assay [1] were 118 µM and 112 µM, respectively. Further, the values for the Selectivity ratio in assay [5] and in assay [6] were 0.2 and 1, respectively. Besides, in assay [2], the IC50 stood at 15.2 µM. The compound further came in with an inhibition at 50 µM in assay [3] of 23%.

Consider `CCOC(=O)C(C(=O)Nc1ccc2c(c1)OC(OCc1ccc(C(=N)N)cc1)C(=O)N2C)c1ccccc1` (stereo unspecified), for which the values for the Ki in assay [4] and in assay [1] were 9.89 µM and 50.3 µM, respectively. Further, the results for the Selectivity ratio in assay [5] and in assay [6] were 1.5 and 5.1, respectively. For the same compound, the IC50 in assay [2] is 2.44 µM. This compound displayed an inhibition at 50 µM in assay [3] of 23%.

Regarding `CN1CC(C)(COc2ccc(C(=N)N)cc2)Oc2cc(NC(=O)C(Cc3ccccc3)C(=O)O)ccc21` (stereo unspecified), in assay [4], the Ki stood at 5.5 µM. For the same compound, the IC50 in assay [7] was determined as 24.9 µM.

Consider `CCOC(=O)C(=O)N(Cc1ccccc1)c1ccc2c(c1)OC(C)(COc1ccc(C(=N)N)cc1)CN2C` (stereo unspecified), for which affinity in assay [1] was put at a Ki of 112 µM. In assay [2], this compound had an IC50 of 2 µM. Besides, testing at 50 µM in assay [3] gave an inhibition of 21%.

Turning to `COC(=O)C(Cc1ccccc1)C(=O)Nc1ccc2c(c1)OC(C)(COc1ccc(C(=N)N)cc1)CN2C` (stereo unspecified), the Ki in assay [4] is 2.86 µM; in assay [1], 35.4 µM. For the same compound, the Selectivity ratio in assay [5] amounted to 1.7; in assay [6] it was 12. The compound also yielded an IC50 in assay [2] of 9.11 µM. This compound also gave an inhibition at 50 µM in assay [3] of 21%.

As for `CCOC(=O)CCC(=O)Nc1ccc2c(c1)OC(C)(COc1ccc(C(=N)N)cc1)CN2C` (stereo unspecified), the Ki was determined as 16.9 µM in assay [4] and 74.7 µM in assay [1]. Further, the Selectivity ratio in assay [5] worked out at 0.4; in assay [6], 4.4. The compound further registered an IC50 in assay [2] of 14 µM. Testing at 50 µM in assay [3] gave an inhibition of 15%.

Consider `CCOC(=O)CCC(=O)N(Cc1ccccc1)c1ccc2c(c1)OC(C)(COc1ccc(C(=N)N)cc1)CN2C` (stereo unspecified), for which the figures for the inhibition constant (Ki) in assay [4] and in assay [1] were 0.06 µM and 18 µM, respectively. Besides, the Selectivity ratio is 19 in assay [5] and 300 in assay [6]. The IC50 in assay [2] turned out to be 29.3 µM. The result in assay [3] was inactive.

On to `CCOC(=O)C(Cc1ccccc1)C(=O)Nc1ccc2c(c1)N(C)CC(C)(COc1ccc(C(=N)N)cc1)O2` (stereo unspecified), for which the results for the Ki in assay [4] and in assay [1] were 4.93 µM and 29.5 µM, respectively. Besides, the Selectivity ratio in assay [5] came out at 0.6; in assay [6] it was 6. This compound yielded an IC50 in assay [2] of 36.5 µM. In addition, the inhibition at 50 µM in assay [3] worked out at 8%.
